Measured values reported in patent EP4177246A1, “FUSED OXAZEPINES AS INHIBITORS OF PEROXIREDOXINS” (Centro Atlántico del Medicamento, SA, priority 2021, dated 2023).

Tests used:
DU-145 = assay: MTT cell viability assay, DU-145 cells; format: cell-based; details: Homo sapiens, 48 h drug exposure
Protocol: DU-145 [American Type Culture Collection (ATCC) reference number HTB-81]. This a human prostate cancer cell line derived from a metastatic site (brain) of a person.
(§1) Cell viability was assayed by measuring the mitochondrial reduction of the tetrazolium salt 3-(4,5-methyltiazol-2yl)-2,5diphenyl-tetrazolium bromide] (MTT) (Applichen; A2231,0010) [Mosmann T. J Immunol Methods. 1983 16;65(1-2):55-63 (ref. 36); Chuan Y-C et al 2010. Oncogene. 29 (10), 1531-1542 (ref. 37)]. Cells were seeded in 96-well plates in medium (either RPMI, DMEM or McCoys depending on the recommendations from the ATCC) supplemented with 10% FBS (Lonza Cat. N°: 14-502F), 2mM L-Glut (Lonza Cat. N°: BE17-605E) and 100U/ml PEST (Lonza Cat. N°: DE17-605E) at a cell density of 1000-5000 cells/well (96 well plate). Cells were seeded at a density according to their exponential growth phase (normally 1000 to 5000/well). The cells were cultured at 37 °C in the dark in air containing 5% CO2. After 24h either vehicle (0.05% DMSO) or drug were added to culture medium at the indicated concentrations (10 to 0,01microM). After another 48 h, MTT (0.3 mg/ml) was added to cells, followed by incubation for 2-4h at 37 °C in the dark. The medium was then removed and the precipitated formazan was solubilized by the addition of DMSO (200 µL).
(§2) The optical density was measured at 595 nm with the iMark Microplate Reader (BioRad, USA). Data was expressed as percent growth above the level in controls and the results in figures were plotted as means ± SEM of each test point from 3 replicates.
(§3) Statistical analysis. The concentration of drug that provokes 50% reduction of cell viability (IC50) was determined by using non-linear regression analysis and data were fitted to a log concentration vs normalized response curve in GraphPad software v5 (San Diego, CA).

PANC-1 = assay: MTT cell viability assay, PANC-1 cells; format: cell-based; details: Homo sapiens, 48 h drug exposure
Protocol: PANC-1 [American Type Culture Collection (ATCC) reference number CRL-1469]. This a human cancer cell line derived from the pancreas of a person.
as §1, §2, §3

HEL 92.1.7 = assay: MTT cell viability assay, HEL cells; format: cell-based; details: Homo sapiens, 48 h drug exposure
Protocol: HEL 92.1.7 [American Type Culture Collection (ATCC) reference number TIB-180]. This a human cancer cell line derived from the bone marrow of a person with erythroleukemia, which is a form of AML.
as §1, §2, §3

K562 = assay: MTT cell viability assay, K562 cells; format: cell-based; details: Homo sapiens, 48 h drug exposure
Protocol: K562 [American Type Culture Collection (ATCC) reference number CCL-243]. This a human cancer cell line derived from the bone marrow of a person with CML.
as §1, §2, §3

MCF-7 = assay: MTT cell viability assay, MCF-7 cells; format: cell-based; details: Homo sapiens, MCF7, 48 h drug exposure
Protocol: as §1, §2, §3

MDA-MB-231 = assay: MTT cell viability assay, MDA-MB-231 cells; format: cell-based, human; details: Homo sapiens, 48 h drug exposure
Protocol: MDA-MB-231 [American Type Culture Collection (ATCC) reference number HTB-26]. This a human breast cancer cell line derived from a metastatic site from a person.
as §1, §2, §3

Row | IC50 (DU-145) | IC50 (PANC-1) | IC50 (K562) | IC50 (MCF-7) | IC50 (MDA-MB-231) | SMILES | IC50 (HEL 92.1.7)
1 | > 10 µM | 5.6 µM | 0.57 µM | 4.22 µM | 4.02 µM | N#Cc1ccc(N2Cc3ccccc3OC3=C2C(=O)c2ccccc2C3=O)cc1 [Compound 2, 4-(6,11-dioxo-6,11-dihydrobenzo[f]naphtho[2,3-b][1,4]oxazepin-12(13H)-yl)benzonitrile] | 0.35 µM
2 | 6.04 µM | 0.32 µM | 0.23 µM | 2.59 µM | 0.36 µM | N#Cc1ccc(N2Cc3ccccc3OC3=C2C(=O)c2c(O)ccc(O)c2C3=O)cc1 [Compound 8, 4-(7,10-dihydroxy-6,11-dioxobenzo[f]naphtho[2,3-b][1,4]oxazepin-12(6H,11H,13H)-yl)benzonitrile] | 0.1 µM
3 | 6.13 µM | 0.63 µM | 0.59 µM | 2.52 µM | 1.96 µM | NS(=O)(=O)c1ccc(N2Cc3ccccc3OC3=C2C(=O)c2c(O)ccc(O)c2C3=O)cc1 [Compound 40, 4-(7,10-dihydroxy-6,11-dioxo-6,11-dihydrobenzo[f]naphtho[2,3-b][1,4]oxazepin-12(13H)-yl)benzenesulfonamide] | 0.21 µM
4 | 3.41 µM | 0.38 µM | 0.07 µM | 1.28 µM | 0.19 µM | NC(=O)c1cccc(N2Cc3ccccc3OC3=C2C(=O)c2c(O)ccc(O)c2C3=O)c1 [Compound 54, 3-(7,10-dihydroxy-6,11-dioxo-6,11-dihydrobenzo[f]naphtho[2,3-b][1,4]oxazepin-12(13H)-yl)benzamide] | 0.09 µM
5 | 0.54 µM | 0.28 µM | 0.05 µM | 0.72 µM | 0.21 µM | O=C1C2=C(C(=O)c3c(O)ccc(O)c31)N(c1ccc(N3CCOCC3)nc1)Cc1ccccc1O2 [Compound 59] | 0.06 µM
6 | 1.32 µM | 1.55 µM | 0.1 µM | 3 µM | 0.27 µM | CN(C)c1ccc(N2Cc3ccccc3OC3=C2C(=O)c2c(O)ccc(O)c2C3=O)cn1 [Compound 62, 12-(6-(dimethylamino)pyridin-3-yl)-7,10-dihydroxy-12,13-dihydrobenzo[f]naphtho[2,3-b][1,4]oxazepine-6,11-dione] | 0.07 µM
7 | 0.82 µM | 0.26 µM | 0.02 µM | 0.91 µM | 0.32 µM | CN1CCN(c2ccc(N3Cc4ccccc4OC4=C3C(=O)c3c(O)ccc(O)c3C4=O)cn2)CC1 [Compound 81, 7,10-dihydroxy-12-(6-(4-methylpiperazin-1-yl)pyridin-3-yl)-12,13-dihydrobenzo[f]naphtho[2,3-b][1,4]oxazepine-6,11-dione] | 0.05 µM
